The target in assay [1] is CCK-A receptor. As to the kind of experiment: CCK receptor binding, CCK-A receptor (Pancreas Assay), Dal Forno procedure. As to the method: (§1) The greater affinity of the compounds of the invention for the CCK-B receptor over the CCK-A receptor has also been established using the CCK receptor binding assays described by G Dal Fornos et al., J. Pharmcol. Exp & Ther. 261, 1056-1063, 1992.
(§2) The binding affinity of the compounds of the invention for the CCK-A receptor (Pancreas Assay) and CCK-B receptor (guinea pig cortex assay) was determined using the procedure of G Dal Forno et al J. Pharmacol. Exp & Ther. 261-1056-1063. The pKi values determined with respresentative compounds of invention were as follows: […]

Assay [2] deals with T1, CCK-B receptor (Cavia porcellus, UniProt H0VZC5).
T1 construct: CCK-B receptor (guinea pig cortex assay); from tissue; host or cells: guinea pig cortex
T1 sequence (H0VZC5 entry or part of it): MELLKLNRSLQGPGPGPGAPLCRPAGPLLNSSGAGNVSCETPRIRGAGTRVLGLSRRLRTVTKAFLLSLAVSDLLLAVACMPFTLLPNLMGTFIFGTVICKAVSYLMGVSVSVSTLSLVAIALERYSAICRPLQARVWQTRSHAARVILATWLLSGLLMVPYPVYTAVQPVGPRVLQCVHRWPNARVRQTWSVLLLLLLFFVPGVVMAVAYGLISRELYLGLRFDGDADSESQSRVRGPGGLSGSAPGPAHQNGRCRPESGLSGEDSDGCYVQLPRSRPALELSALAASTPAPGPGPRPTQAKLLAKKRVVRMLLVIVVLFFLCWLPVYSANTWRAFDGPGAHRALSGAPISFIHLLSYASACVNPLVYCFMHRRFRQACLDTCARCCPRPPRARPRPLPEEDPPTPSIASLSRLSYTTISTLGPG
Description: CCK receptor binding, CCK-B receptor (guinea pig cortex assay), Dal Forno procedure. Conditions: read-out: pKi CCK-B (converted). As to the method:
as §1, §2

In the case of `O=C(Nc1cccc(-c2nn[nH]n2)c1)NC1C(=O)N(CCC2CCCC2)c2ccccc2N(c2ccccc2F)C1=O` (single isomer, unassigned; (+)) [Example 4, (+)-N-[1-(Cyclopentylethyl)-2,4-dioxo-5-(2-fluorophenyl)-2,3,4,5-tetrahydro-1H-benzodiazepin-3-yl]-N'-(3-tetrazolyl)phenylurea], the “pKi CCK-A” value in assay [1] is recorded as 6.63. Besides, the Ki in assay [2] is 0.105 nM.

`CC(C)(C)CCN1C(=O)C(NC(=O)Nc2cccc(-c3nnn[nH]3)c2)C(=O)N(c2ccccc2)c2ccccc21` (stereo not drawn) [Example 3, N-[1-(3,3-Dimethylbutyl)-2,4-dioxo-5-phenyl-2,3,4,5-tetrahydro-1H-1,5-benzodiazepine-3-yl]-N'[3-(5-tetrazolyl)-phenyl]urea]: the “pKi CCK-A” value in assay [1] is 7.64. Moreover, in assay [2], the Ki was 0.288 nM.

Regarding `O=C(Nc1cccc(-c2nn[nH]n2)c1)NC1C(=O)N(CCC2CCCC2)c2ccccc2N(c2ccccc2F)C1=O` (single isomer, unassigned; (-)) [Example 5, (-)-N-[1-(Cyclopentylethyl)-2,4-dioxo-5-(2-fluorophenyl)-2,3,4,5-tetrahydro-1H-benzodiazepin-3-yl]-N'-(3-tetrazolyl)phenylurea], the “pKi CCK-A” value in assay [1] is given as 6.51. The Ki in assay [2] is 0.269 nM.

These data come from patent US5641775A, “3-phenylureido-1,5-benzodiazepine-diones useful as gastrin or antagonists” (Glaxo SpA, priority 1993, dated 1997).
